Laboratory results taken from patent US20150051262A1, “NMDA RECEPTOR MODULATORS AND USES THEREOF” (Northwestern University, priority 2011, published 2015).
Where two headings read alike, the source gives them in different places. Residues, ends and D or L forms follow the SMILES beside them.

Experiments:
[1] = Metabolic stability in liver microsomes, rat; type: in vitro ADME; settings: Rat (M) microsomes, 1 μM
Experimental: (§1) Metabolic stability was assessed in liver microsomes as well as in hepatocytes with few compounds.
(§2) Procedure for microsomal stability: • Species: Rat and human • Test concentration: 1 μM (n=2) • Protein concentration: 0.125 mg/mL • Time points: 0, 5, 15, 30 and 60 minutes • Controls: Minus NADPH and buffer • Analysis: Parent compound monitoring LC-MS/MS (Peak area ratios)

[2] = Kinetic aqueous solubility (pION method); type: physicochemical; settings: pH 7.4, conc. tested 200 μM with 1% DMSO, 16 h incubation
[3] = Metabolic stability in liver microsomes, human; type: in vitro ADME; settings: Human (M) microsomes, 1 μM
Experimental: as §1, §2

[4] = test system: MDCK (Madin-Darby Canine Kidney Cells); experiment: in vitro; settings: concentration 5 μM; for Papp (10^−6 cm/sec): HBSS pH 7.4
Experimental: Procedure. Permeability of test compounds was assessed using MDCK (Madin-Darby Canine Kidney Cells) using the below parameters. • Test concentration: 5 μM (n=3) • Buffer: HBSS pH 7.4 • Time points: 0, 15, 30, 60 and 90 min • Analysis: Parent compound monitoring using LC-MS/MS

NMDA receptor = NMDA receptor (Rattus norvegicus, UniProt P35439); experiment: [^3H] MK-801 binding assay; settings: for Emax: read-out: Efficacy (% Increase in [^3H] MK-801 Binding)
floating behavior [5] = experiment: Porsolt test procedure 2; type: in vivo, Sprague Dawley rats; settings: 1 hr post-dosing
Experimental: The antidepressant-like effects of test compounds were examined with the rat Porsolt test as described in Page et al. (1999) and Burgdorf et al. (2009). Male Sprague Dawley rats (2-3 month old) were used in this study. Animals were dosed with test compounds (0.3 mg/kg IV) or sterile saline vehicle (1 ml/kg IV tail vein) 1 hr before a single test session. […] Water was changed after every other animal. […] CM-6A, CM-7A, CM-8A, and CM-9A were tested in the Porsolt test. CM-5A was not tested in the Porsolt test.
Animals received a single 15 min Porsolt habituation session on the day before the first 5 min Porsolt test. N=6 per group. *P<0.05 Fisher's PLSD post hoc test vs. vehicle.

[6] = test system: Schaffer collateral-evoked NMDA EPSCs in CA1 pyramidal neurons; experiment: Long-term potentiation (LTP) assay procedure 2; type: cell-based, Sprague-Dawley rats; settings: 1 μM, FIG. 8, P<0.05
Experimental: Assays were conducted as described in Zhang et al. (2008). Sprague-Dawley rats (12-18 days old; Taconic Farms) were deeply anesthetized with isoflurane and decapitated. Brains was removed rapidly, submerged in ice-cold artificial cerebrospinal fluid (ACSF, 2-4° C.), which contained (in mM): 124 NaCl, 4 KCl, 2 MgSO4, 2 CaC12, 1.25 NaH2PO4, 26 NaHCO3, 10 glucose; at pH 7.4, gassed continuously with 95% O2/5% CO2). Brains were hemisected, the frontal lobes cut off, and individual hemispheres glued using cyanoacrylate adhesive onto a stage immersed in ice-cold ACSF gassed continuously with 95% O2/5% CO2 during slicing. […] Bath application of test compounds (1 μM) was applied 30 min prior to application of Schaffer collateral stimulus trains to elicit LTP. LTP was induced by stimulation of Schaffer collateral axons with four high frequency theta burst stimulus trains of 10×100 Hz/5 pulse bursts each, applied at an inter-burst interval of 200 ms. Each train was 2 s in duration, and trains were applied 15 s apart.

[7] = Metabolic stability in hepatocytes, rat; type: in vitro ADME; settings: Rat (H) hepatocytes, 10 μM
Experimental: as §1
(§3) Procedure for hepatocyte stability: • Stock preparation: DMSO • Buffer: Krebs Henseleit Buffer • Total Incubation volume: […] • Cell density: 1 million cells/mL • Test concentration: 10 μM with 0.5% DMSO (n=2) • Time points: 0 and 60 min • Analysis: LC-MS/MS

floating behavior [8] = experiment: Porsolt test procedure 2; type: in vivo, Sprague Dawley rats; settings: single dose (0.3 mg/kg IV), 24 hrs post-dosing, FIG. 11C
[9] = Metabolic stability in hepatocytes, human; type: in vitro ADME; settings: Human (H) hepatocytes, 10 μM
Experimental: as §1, §3

[10] = single dose 0.3 mg/kg IV, FIG. 11A
[11] = single dose (0.3 mg/kg IV), FIG. 11B

**Q.** With `Cc1ccc(C[C@@]2(C(=O)N[C@H](C(N)=O)[C@@H](C)O)CCCN2C(=O)[C@@H]2CCCN2C(=O)[C@@H](N)[C@@H](C)O)cc1` [CM-5A, (R)-N-((2S,3R)-1-amino-3-hydroxy-1-oxobutan-2-yl)-1-((S)-1-((2S,3R)-2-amino-3-hydroxybutanoyl)pyrrolidine-2-carbonyl)-2-(4-methylbenzyl) pyrrolidine-2-carboxamide] as the compound, how does the “% Remaining at 60 minutes” value [1] read?
**A.** Its value is 95%.

**Q.** What about the “Half-life” value [1] of the same compound?
**A.** Its value is over 1 h.

**Q.** What about the “Stability Class” value [1] of the same compound?
**A.** Its value is “Stable (% Remaining >90%)”.

**Q.** And the “Mean Solubility (N = 3) at pH” value [2]?
**A.** The value was over 200.

**Q.** What about the “% Remaining at 60 minutes” value [3] of the same compound?
**A.** Its value is 86%.

**Q.** What about the “Half-life” value [3] of the same compound?
**A.** Its value is over 1 h.

**Q.** What about the “Stability Class” value [3] of the same compound?
**A.** Its value is “Moderate (% Remaining 70-90%)”.

**Q.** And the Permeability classification [4]?
**A.** The Permeability classification was “Low (≦3 × 10^−6 cm/sec)”.

**Q.** What about the Recovery [4] of the same compound?
**A.** Its Recovery is 100.

**Q.** For `C[C@@H](O)[C@H](NC(=O)C1(Cc2ccccc2)CCCN1C(=O)[C@@H]1CCCN1C(=O)[C@@H](N)CO)C(N)=O` (stereo partly drawn) [CM-10, N-((2S,3R)-1-amino-3-hydroxy-1-oxobutan-2-yl)-1-((S)-1-((S)-2-amino-3-hydroxypropanoyl)pyrrolidine-2-carbonyl)-2-benzylpyrrolidine-2-carboxamide], which Emax (NMDA receptor) is on record?
**A.** The Emax was 16%.

**Q.** Which results are given for `CC(O)C(N)C(=O)N1CCCC1C(=O)N1CCCC1(Cc1ccc(C(F)(F)F)cc1)C(=O)NC(C(N)=O)C(C)O` (centres unmarked) [CM-7]?
**A.** EC50 (NMDA receptor): 10.6 nM; Emax (NMDA receptor): 13%

**Q.** With `COc1ccc(CC2(C(=O)N[C@H](C(N)=O)[C@@H](C)O)CCCN2C(=O)[C@@H]2CCCN2C(=O)[C@@H](N)[C@@H](C)O)cc1` (some centres unmarked) [CM-11] as the compound, how does the EC50 (NMDA receptor) read?
**A.** Its EC50 is 0.013 nM.

**Q.** And the Emax (NMDA receptor)?
**A.** Its Emax is 9%.

**Q.** Which EC50 (NMDA receptor) does the source give for `Cc1cccc(CC2(C(=O)NC(C(N)=O)C(C)O)CCCN2C(=O)C2CCCN2C(=O)C(N)C(C)O)c1` (centres unmarked) [CM-8] here?
**A.** Its EC50 is 0.006 nM.

**Q.** And the Emax (NMDA receptor)?
**A.** Its Emax is 16%.

**Q.** For `CC(O)C(N)C(=O)N1CCCC1C(=O)N1CCCC1(Cc1cc(Br)cc(Br)c1)C(=O)NC(C(N)=O)C(C)O` (centres unmarked) [CM-12], which EC50 (NMDA receptor) is on record?
**A.** The EC50 was 2.21 nM.

**Q.** And the Emax (NMDA receptor)?
**A.** The Emax was 13%.

**Q.** With `NC(=O)[C@H](CO)NC(=O)[C@@H]1CCCN1C(=O)[C@@H]1CCCN1C(=O)[C@@H](N)CO` [CM-3, (S)-N-((S)-1-amino-3-hydroxy-1-oxopropan-2-yl)-1-((S)-1-((S)-2-amino-3-hydroxy-propanoyl)-pyrrolidine-2-carbonyl)-pyrrolidine-2-carboxamide] (H-SPPS-NH2) as the compound, how does the EC50 (NMDA receptor) read?
**A.** Its EC50 is 0.016 nM.

**Q.** Which EC50 (NMDA receptor) does the source give for `COc1cc(CC2(C(=O)NC(C(N)=O)C(C)O)CCCN2C(=O)C2CCCN2C(=O)C(N)C(C)O)cc(OC)c1OC` (centres unmarked) [CM-14] here?
**A.** The EC50 was 0.443 nM.

**Q.** What about the Emax (NMDA receptor) of the same compound?
**A.** Its Emax is 8%.

**Q.** Which EC50 (NMDA receptor) does the source give for `C[C@@H](O)[C@H](NC(=O)[C@@H]1CCCN1C(=O)[C@@H]1CCCN1C(=O)[C@@H](N)CO)C(N)=O` [CM-1, (S)-N-((2S,3R)-1-amino-3-hydroxy-1-oxobutan-2-yl)-1-((S)-1-((S)-2-amino-3-hydroxypropanoyl)pyrrolidine-2-carbonyl)pyrrolidine-2-carboxamide] (H-SPPT-NH2) here?
**A.** Its EC50 is 0.005 nM.

**Q.** Which Emax (NMDA receptor) does the source give for `COc1cccc(CC2(C(=O)NC(C(N)=O)C(C)O)CCCN2C(=O)C2CCCN2C(=O)C(N)C(C)O)c1` (centres unmarked) [CM-13] here?
**A.** Its Emax is 10%.

**Q.** Which results are given for `CC(O)C(N)C(=O)N1CCCC1C(=O)N1CCCC1(Cc1cccc(F)c1)C(=O)NC(C(N)=O)C(C)O` (centres unmarked) [CM-9]?
**A.** EC50 (NMDA receptor): 0.007 nM; Emax (NMDA receptor): 15%

**Q.** For `CC(O)C(N)C(=O)N1CCCC1C(=O)N1CCCC1(Cc1ccc(F)cc1)C(=O)NC(C(N)=O)C(C)O` (centres unmarked) [CM-6], which Emax (NMDA receptor) is on record?
**A.** Its Emax is 12%.

**Q.** For `C[C@@H](O)[C@H](N)C(=O)N1CCC[C@H]1C(=O)N1CCC[C@H]1C(=O)N[C@@H](CO)C(N)=O` [CM-2, (S)-N-((S)-1-amino-3-hydroxy-1-oxopropan-2-yl)-1-((S)-1-((2S,3R)-2-amino-3-hydroxybutanoyl)pyrrolidine-2-carbonyl) pyrrolidine-2-carboxamide] (H-TPPS-NH2), which “Efficacy (% Increase in [^3H] MK-801 Binding)” value (NMDA receptor; best-fit top value, 50 μM glutamate) is on record?
**A.** Its value is 24%.

**Q.** And the EC50 (NMDA receptor; rat forebrain membranes, 50 μM glutamate, read-out: Potency (EC50))?
**A.** The EC50 was 0.006 nM.

**Q.** What does the source list for `C[C@@H](O)[C@H](N)C(=O)N1CCC[C@H]1C(=O)N1CCC[C@@]1(Cc1ccc(C(F)(F)F)cc1)C(=O)N[C@H](C(N)=O)[C@@H](C)O` [CM-7A, (R)-N-((2S,3R)-1-amino-3-hydroxy-1-oxobutan-2-yl)-1-((S)-1-((2S,3R)-2-amino-3-hydroxybutanoyl)pyrrolidine-2-carbonyl)-2-(4-(trifluoromethyl)benzyl) pyrrolidine-2-carboxamide]?
**A.** floating time in the Porsolt test (floating behavior [5]; [10]): produced an antidepressant-like effect; floating time in the Porsolt test (floating behavior [5]; [11]): produced an antidepressant-like effect; long-term potentiation after high frequency stimulation (fEPSP slope) [6]: increased long-term potentiation; % Remaining at 60 minutes [7]: 76%; Half-life [7]: >1 h; Stability Class [7]: Moderate (% Remaining 70-90%); floating time in the Porsolt test (floating behavior [8]): produced an antidepressant-like effect; % Remaining at 60 minutes [9]: 92%; Half-life [9]: >1 h; Stability Class [9]: Stable (% Remaining >90%); Permeability classification [4]: Low (≦3 × 10^−6 cm/sec); Recovery [4]: 68; Papp (10^−6 cm/sec) [4]: 0.11 ± 0.0 10^−6 cm/sec

**Q.** Which “floating time in the Porsolt test” value (floating behavior [5]; [10]) does the source give for `Cc1cccc(C[C@@]2(C(=O)N[C@H](C(N)=O)[C@@H](C)O)CCCN2C(=O)[C@@H]2CCCN2C(=O)[C@@H](N)[C@@H](C)O)c1` [CM-8A, (R)-N-((2S,3R)-1-amino-3-hydroxy-1-oxobutan-2-yl)-1-((S)-1-((2S,3R)-2-amino-3-hydroxybutanoyl)pyrrolidine-2-carbonyl)-2-(3-methylbenzyl) pyrrolidine-2-carboxamide] here?
**A.** Its value is “produced an antidepressant-like effect”.

**Q.** What about the “floating time in the Porsolt test” value (floating behavior [5]; [11]) of the same compound?
**A.** The value was “produced an antidepressant-like effect”.

**Q.** And the “long-term potentiation after high frequency stimulation (fEPSP slope)” value [6]?
**A.** Its value is “increased long-term potentiation”.

**Q.** And the “% Remaining at 60 minutes” value [1]?
**A.** The value was 91%.

**Q.** What about the “Half-life” value [1] of the same compound?
**A.** The value was over 1 h.

**Q.** And the “Stability Class” value [1]?
**A.** Its value is “Stable (% Remaining >90%)”.

**Q.** What about the “floating time in the Porsolt test” value (floating behavior [8]) of the same compound?
**A.** Its value is “produced an antidepressant-like effect”.

**Q.** What about the “Mean Solubility (N = 3) at pH” value [2] of the same compound?
**A.** The value was over 200.

**Q.** What about the “% Remaining at 60 minutes” value [3] of the same compound?
**A.** Its value is 75%.

**Q.** What about the “Half-life” value [3] of the same compound?
**A.** Its value is over 1 h.

**Q.** And the “Stability Class” value [3]?
**A.** Its value is “Moderate (% Remaining 70-90%)”.

**Q.** And the Permeability classification [4]?
**A.** The Permeability classification was “Low (≦3 × 10^−6 cm/sec)”.

**Q.** And the Recovery [4]?
**A.** The Recovery was 83.

**Q.** And the “Papp (10^−6 cm/sec)” value [4]?
**A.** The value was 0.14 ± 0.01 10^−6 cm/sec.

**Q.** For `CC/C(=C(/CC)c1ccc(O)cc1)c1ccc(O)cc1` [DES, reference compound], which “Mean Solubility (N = 3) at pH” value [2] is on record?
**A.** Its value is 2.6 ± 2.1.
